From patent US7473688B2, “Indolobenzazepine HCV NS5B inhibitors” (Bristol-Myers Squibb Company, priority 2005, dated 2009)

Assays:
HCV replicon = HCV replicon FRET assay; format: cell-based; conditions: Hepatitis C virus, Table 1; FRET assay; read-out: EC50*
How it was run: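 HCV replicon cells, with or without Renilla luciferase reporter, incubated with titrated compounds at 37 °C; Alamar blue read for cytotoxicity. NS3 protease activity read from lysates with 20 μM EDANS/DABCYL FRET peptide (340/490 nm, kinetic), or by Dual-Glo luciferase. Background from highest protease-inhibitor wells; EC50 = 50% signal reduction.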

HCV NS5B = molecular target: T1, HCV NS5B (Hepatitis C virus genotype 1b, UniProt Q9WMX2); assay: HCV NS5B RdRp enzyme assay (preincubation protocol); format: biochemical; conditions: Table 1, read-out: IC50*
T1 construct: The protein was expressed with an 18 amino acid C-terminal truncation to enhance the solubility; made in house; host or cells: E. coli BL21 (DE3), pET21a
T1 sequence (Q9WMX2 2420-2992): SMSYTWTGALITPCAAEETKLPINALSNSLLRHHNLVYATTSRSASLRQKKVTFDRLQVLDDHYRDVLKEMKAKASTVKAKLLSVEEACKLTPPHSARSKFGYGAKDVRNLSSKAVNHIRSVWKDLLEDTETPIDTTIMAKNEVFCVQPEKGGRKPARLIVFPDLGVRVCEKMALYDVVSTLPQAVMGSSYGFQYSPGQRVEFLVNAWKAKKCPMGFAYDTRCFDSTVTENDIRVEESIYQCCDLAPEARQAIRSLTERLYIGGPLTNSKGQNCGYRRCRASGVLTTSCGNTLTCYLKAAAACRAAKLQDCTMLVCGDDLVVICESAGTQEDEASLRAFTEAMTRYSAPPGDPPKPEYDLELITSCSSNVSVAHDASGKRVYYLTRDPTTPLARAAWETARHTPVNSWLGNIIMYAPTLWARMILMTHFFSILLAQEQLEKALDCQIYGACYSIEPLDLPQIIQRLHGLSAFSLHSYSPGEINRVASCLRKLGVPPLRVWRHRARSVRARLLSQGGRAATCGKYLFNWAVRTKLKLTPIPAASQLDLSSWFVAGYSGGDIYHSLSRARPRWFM
How it was run: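 C-terminally truncated (Δ18) genotype 1b NS5B from E. coli, 14 nM, added to compound, then polyA template (0.2 nM), 3H-UTP (0.29 μM) and oligo-dT12 primer precaptured on streptavidin SPA beads. 4 h at 30 °C, pH 7.5, 2% DMSO; SPA readout; IC50 from seven concentrations by logistic fit.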

| Structure (SMILES) | EC50 (HCV replicon) [nM] | IC50 (HCV NS5B) [nM] |
| --- | --- | --- |
| CC(C)(C)OC(=O)N1CCN(C(=O)C2=Cc3ccccc3-c3c(C4CCCCC4)c4ccc(C(=O)O)cc4n3C2)CC1 | 70 to 1000 | 10 to 1000 |
| C[C@@H]1CN(C(=O)c2ccccc2)CCN1C(=O)C1=Cc2ccccc2-c2c(C3CCCCC3)c3ccc(C(=O)O)cc3n2C1 | 70 to 1000 | 10 to 1000 |
| CN(C)S(=O)(=O)NC(=O)c1ccc2c(C3CCCCC3)c3n(c2c1)CC(C(=O)N1CCN(c2ccccc2)CC1)=Cc1ccccc1-3 | 70 to 1000 | 10 to 1000 |
| Cc1ccc(S(=O)(=O)N2CCN(C(=O)C3=Cc4ccccc4-c4c(C5CCCCC5)c5ccc(C(=O)NS(=O)(=O)N(C)C)cc5n4C3)CC2)cc1 | 70 to 1000 | 10 to 1000 |
| CC1CN(C(=O)OC(C)(C)C)CCN1C(=O)C1=Cc2ccccc2-c2c(C3CCCCC3)c3ccc(C(=O)NS(=O)(=O)N(C)C)cc3n2C1 (stereo not drawn) | 70 to 1000 | 10 to 1000 |
| COc1ccc(S(=O)(=O)N2CCN(C(=O)C3=Cc4ccccc4-c4c(C5CCCCC5)c5ccc(C(=O)NS(=O)(=O)N(C)C)cc5n4C3)CC2)cc1 | 70 to 1000 | 10 to 1000 |
| CCOC(=O)CN1CCN(C(=O)C2=Cc3ccccc3-c3c(C4CCCCC4)c4ccc(C(=O)NS(=O)(=O)N(C)C)cc4n3C2)CC1 | 70 to 1000 | 10 to 1000 |
| CN(C)S(=O)(=O)NC(=O)c1ccc2c(C3CCCCC3)c3n(c2c1)CC(C(=O)N1CCN(CC(=O)N2CCOCC2)CC1)=Cc1ccccc1-3 | 70 to 1000 | 10 to 1000 |
| CN(C)S(=O)(=O)NC(=O)c1ccc2c(C3CCCCC3)c3n(c2c1)CC(C(=O)N1CCN(C(=O)C2COc4ccccc4O2)CC1)=Cc1ccccc1-3 (stereo not drawn) | 70 to 1000 | 10 to 1000 |
| COCCN1CCN(C(=O)C2=Cc3ccccc3-c3c(C4CCCCC4)c4ccc(C(=O)NS(=O)(=O)N(C)C)cc4n3C2)CC1 | 70 to 1000 | 10 to 1000 |
| CCS(=O)(=O)N1CCN(C(=O)C2=Cc3ccccc3-c3c(C4CCCCC4)c4ccc(C(=O)NS(=O)(=O)N(C)C)cc4n3C2)CC1 | 70 to 1000 | 10 to 1000 |
| CN(C)S(=O)(=O)NC(=O)c1ccc2c(C3CCCCC3)c3n(c2c1)CC(C(=O)N1CCN2C(=O)c4ccccc4CC2C1)=Cc1ccccc1-3 (stereo not drawn) | 70 to 1000 | 10 to 1000 |
| CN(C)S(=O)(=O)NC(=O)c1ccc2c(C3CCCCC3)c3n(c2c1)CC(C(=O)N1CCN(S(=O)(=O)c2ccccc2)CC1)=Cc1ccccc1-3 | 70 to 1000 | 10 to 1000 |
| CN(C)S(=O)(=O)NC(=O)c1ccc2c(C3CCCCC3)c3n(c2c1)CC(C(=O)N1CCN(C(=O)C2CC2)CC1)=Cc1ccccc1-3 | 70 to 1000 | 10 to 1000 |
| COc1ccc2c(c1)C=C(C(=O)N1CCN(S(C)(=O)=O)CC1)Cn1c-2c(C2CCCCC2)c2ccc(C(=O)NS(=O)(=O)N(C)C)cc21 | 70 to 1000 | 10 to 1000 |
| COc1ccc2c(c1)C=C(C(=O)N1CCN(S(=O)(=O)N(C)C)CC1)Cn1c-2c(C2CCCCC2)c2ccc(C(=O)NS(=O)(=O)N(C)C)cc21 | 70 to 1000 | 10 to 1000 |
| CN(C)S(=O)(=O)NC(=O)c1ccc2c(C3CCCCC3)c3n(c2c1)CC(C(=O)N1CCN(S(C)(=O)=O)CC1)=Cc1cc(OCc2ccccc2)ccc1-3 | 70 to 1000 | 10 to 1000 |
| CC(=O)OCC(=O)N1CCN(C(=O)C2=Cc3ccccc3-c3c(C4CCCCC4)c4ccc(C(=O)NS(=O)(=O)N5CCOCC5)cc4n3C2)CC1 | 70 to 1000 | 10 to 1000 |
| CN(C)S(=O)(=O)NC(=O)c1ccc2c(C3CCCCC3)c3n(c2c1)CC(C(=O)N1CCN(c2nccs2)CC1)=Cc1ccccc1-3 | 70 to 1000 | 10 to 1000 |
| CN(C)S(=O)(=O)NC(=O)c1ccc2c(C3CCCCC3)c3n(c2c1)CC(C(=O)N1CCn2cnnc2C1)=Cc1ccccc1-3 | 1000 to 10000 | 10 to 1000 |
| CN(C)S(=O)(=O)NC(=O)c1ccc2c(C3CCCCC3)c3n(c2c1)CC(C(=O)N1CCN(c2ncncn2)CC1)=Cc1ccccc1-3 | 70 to 1000 | 10 to 1000 |

| Structure (SMILES) | EC50 (HCV replicon) [nM] | IC50 (HCV NS5B) [nM] |
| --- | --- | --- |
| CC(=O)N1CCN(C(=O)C2Cc3ccccc3-c3c(C4CCCCC4)c4ccc(C(=O)NS(=O)(=O)N(C)C)cc4n3C2)CC1 (stereo not drawn) | 70 to 1000 | 10 to 1000 |
| CN(C)S(=O)(=O)NC(=O)c1ccc2c(C3CCCCC3)c3n(c2c1)CC(C(=O)N1CCN(S(C)(=O)=O)CC1)Cc1ccccc1-3 (stereo not drawn) | 70 to 1000 | 10 to 1000 |
| O=C1Cn2c(c(C3CCCCC3)c3ccc(C(=O)NS(=O)(=O)N4CCOCC4)cc32)-c2ccccc2N1 | 70 to 1000 | 10 to 1000 |
| O=C(NS(=O)(=O)C(F)(F)F)c1ccc2c(C3CCCCC3)c3n(c2c1)CC(C(=O)N1CCOCC1)=Cc1ccccc1-3 | 1000 to 10000 | 10 to 1000 |
| O=C(NS(=O)(=O)C(F)(F)F)c1ccc2c(C3CCCCC3)c3n(c2c1)CC(C(=O)N1CCOCC1)Cc1ccccc1-3 (stereo not drawn) | 70 to 1000 | 10 to 1000 |
| O=C(O)c1ccc2c(C3CCCCC3)c3n(c2c1)CC(C(=O)N1CC[C@H](F)C1)=Cc1ccccc1-3 | 70 to 1000 | 10 to 1000 |
| O=C(O)c1ccc2c(C3CCCCC3)c3n(c2c1)CC(C(=O)N1CCC(N2CC[C@@H](F)C2)CC1)=Cc1ccccc1-3 | 70 to 1000 | 10 to 1000 |
| O=C(O)c1ccc2c(C3CCCCC3)c3n(c2c1)CC(C(=O)N1CCC(N2CC[C@H](F)C2)CC1)=Cc1ccccc1-3 | 70 to 1000 | 10 to 1000 |
| O=C(O)c1ccc2c(C3CCCCC3)c3n(c2c1)CC(C(=O)N1CCC(N2CCC(F)CC2)CC1)=Cc1ccccc1-3 | 70 to 1000 | 10 to 1000 |
| O=C1CCCN(C(=O)C2=Cc3ccccc3-c3c(C4CCCCC4)c4ccc(C(=O)O)cc4n3C2)N1 | 1000 to 10000 | 10 to 1000 |
| NC(=O)C1CCCN(C(=O)C2Cc3ccccc3-c3c(C4CCCCC4)c4ccc(C(=O)O)cc4n3C2)C1 (stereo not drawn) | 1000 to 10000 | 10 to 1000 |
| CN(C)S(=O)(=O)NC(=O)c1ccc2c(C3CCCCC3)c3n(c2c1)CC(C(=O)N1CCCC(F)C1)=Cc1ccccc1-3 (stereo not drawn) | 70 to 1000 | 10 to 1000 |
| CN(C)S(=O)(=O)NC(=O)c1ccc2c(C3CCCCC3)c3n(c2c1)CC(C(=O)N1CCC(N2CCCC(F)C2)CC1)=Cc1ccccc1-3 (stereo not drawn) | 70 to 1000 | 10 to 1000 |
| CN(C)S(=O)(=O)NC(=O)c1ccc2c(C3CCCCC3)c3n(c2c1)CC(C(=O)N1CCC(N2CCCC(F)(F)C2)CC1)=Cc1ccccc1-3 | 70 to 1000 | 10 to 1000 |
| CN(C)S(=O)(=O)NC(=O)c1ccc2c(C3CCCCC3)c3n(c2c1)CC(C(=O)N1CC[C@@H](F)C1)=Cc1ccccc1-3 | 70 to 1000 | 10 to 1000 |
| CN(C)S(=O)(=O)NC(=O)c1ccc2c(C3CCCCC3)c3n(c2c1)CC(C(=O)N1CC[C@H](F)C1)=Cc1ccccc1-3 | 70 to 1000 | 10 to 1000 |
| CN(C)S(=O)(=O)NC(=O)c1ccc2c(C3CCCCC3)c3n(c2c1)CC(C(=O)N1CCC(N2CC[C@@H](F)C2)CC1)=Cc1ccccc1-3 | 70 to 1000 | 10 to 1000 |
| CN(C)S(=O)(=O)NC(=O)c1ccc2c(C3CCCCC3)c3n(c2c1)CC(C(=O)N1CCC(N2CC[C@H](F)C2)CC1)=Cc1ccccc1-3 | 70 to 1000 | 10 to 1000 |
| CN(C)S(=O)(=O)NC(=O)c1ccc2c(C3CCCCC3)c3n(c2c1)CC(C(=O)N1CCC(N2CCC(F)CC2)CC1)=Cc1ccccc1-3 | 70 to 1000 | 10 to 1000 |
| CN(C)S(=O)(=O)NC(=O)c1ccc2c(C3CCCCC3)c3n(c2c1)CC(C(=O)N1CCCC(C(N)=O)C1)=Cc1ccccc1-3 (stereo not drawn) | 70 to 1000 | 10 to 1000 |
| O=C(O)c1ccc2c(C3CCCCC3)c3n(c2c1)C/C(=N/O)Cc1ccccc1-3 | 1000 to 10000 | 10 to 1000 |
